# From US4500544A, “Ascochlorin derivatives, and pharmaceutical composition containing the same” (Chugai Seiyaku Kabushiki Kaisha, priority 1981, dated 1985)
# How the values were obtained:
# [1] = background; cited from earlier work
# [2] = systemic or oral administration; cited from earlier work
# [3] = system: circulatory system of mammals; details: background; cited from earlier work
# [4] = background; cited from earlier work; remark: listed apart in the source
# [5] = system: Ehrlich ascites tumor; assay: life span of mice with Ehrlich ascites tumor (Example 22); assay type: in vivo, ddY male mice; details: 2 mg i.p. once a day for 7 days
# Procedure: 10^6 Cells of Ehrlich ascites tumor were transplanted in five-week-old ddY male mice and from the 24th hour onward, they were injected intraperitoneally the compounds indicated in Table 4 of the present invention once a day for 7 consecutive days. Each injection contained 2 mg of the test compounds. The efficacy of the compounds is indicated in Table 4 in terms of their life span.
# [6] = plasma glucose and cholesterol in normal mice fed the compounds (Example 19); assay type: in vivo, ddY male mice; details: 0.1% in diet, one week, n=10
# Procedure: Five-week-old ddY male mice (n=10) were given for one week a diet (CE-2 from Nippon Crea Co., Ltd.) containing 0.1% of the sample compounds of the present invention indicated in Table 1. Blood was then withdrawn from the heart and the glucose and cholesterol levels in plasma were measured.
# [7] = system: adipocytes of streptozotocin-diabetic rats; assay: adipocytes from orally treated streptozotocin-diabetic rats; assay type: in vivo; details: oral once daily for 2 weeks
# Procedure: The mechanism of action of the compounds of the present invention was evaluated using adipocytes derived from diabetic animals which orally received the compounds for a given period.
# [8] = system: adipocytes of hereditary obese diabetic mouse, strain C 57BL/KsJ (db^+ /db^+); assay: adipocytes from orally treated hereditary obese diabetic mice; assay type: in vivo; details: oral, 1 week
# Source text: The hereditary obese diabetic mouse, strain C 57BL/KsJ (db^+ /db^+), is an excellent model of human type II diabetes mellitus.
# [9] = system: hepatic lipogenesis in streptozotocin-diabetic mice; assay: hepatic lipogenesis in streptozotocin-diabetic mice; assay type: in vivo; details: oral, a week; untreated diabetic controls one half of normal
# Source text: Potentiation of insulin action by the compounds of the present invention is corroborated by restoration of hepatic lipogenesis in streptozotocin-diabetic mice. Streptozotocin diabetic mice greatly deteriolate hepatic lipogenesis due to insulin deficiency.
# [10] = system: L-1210 leukemia; assay: prevention of L-1210 leukemia by pretreatment one week before transplantation (Example 23); assay type: in vivo, BDF1 female mice; details: 2 mg i.p. one week before 10^2 cells
# Procedure: Four-week-old BDF1 female mice were injected intraperitoneally with suspensions of 2 mg of 4-O-hydroxycarbonylmethyl ester of ascochlorin in 1% tragacanth gum. A control group was injected only with 1% tragacanth gum. One week later, 10^2 cells of L-1210 leukemia were transplanted in the mice.
# [11] = system: Hereditary obese diabetic mice C 57BL/Ksj (db^+ /db^+); assay: hereditary obese diabetic mice, diet with 0.1% compound (Example 20); assay type: in vivo, mouse
# Procedure: The amounts of the diet taken drinking water, urine volume and urine glucose excreted were measured daily. The results are indicated in Table 2 in terms of mean value±standard error.
# [12] = vs one week prior to administration
smiles,measurement,setting,value
COc1c(Cl)c(C)c(C=O)c(O)c1C/C=C(C)/C=C/C1(C)C(C)CCC(=O)C1C (stereo not drawn),water solubility,[1],low in water solubility
same,level in blood,[2],not easily increased even if it is administered systemically or orally
CC(/C=C/[C@@]1(C)[C@H](C)CCC(=O)[C@@H]1C)=C\Cc1c(O)c(Cl)c(C)c(C=O)c1O [Ascochlorin],toxicity to the circulatory system,[3],highly toxic to the circulatory system of mammals
same,anti-viral and anti-tumor effects,[4],high anti-viral and anti-tumor effects
"CC(/C=C/C1(C)C(C)CCC(=O)C1C)=C\Cc1c(O)c(C=O)c(C)c(Cl)c1OCC(=O)O (stereo not drawn) [Example 4, 4-O-carboxymethyl ascochlorin]",Days survived,"[5]; n=8, control 15.5 ± 2.12",> 25.3 ± 4.65 days
same,T/0 (%),[5]; control 100,163%
same,total cholesterol in plasma,[6]; control 135.9 ± 4.8,107.9 ± 4.5 mg/dL
same,plasma glucose,[6]; control 271.6 ± 0.4,217.6 ± 12.2 mg/dL
same,"2-deoxyglucose uptake, and conversion of glucose to carbon dioxide and lipids in adipocytes",[7],greatly increased
same,^125 I-insulin binding to adipocytes,[7]; vs normal and diabetic control,increased ^125 I-insulin binding to adipocytes above normal and diabetic control levels
same,"2-deoxyglucose uptake, and conversion of glucose to carbon dioxide and lipid",[8],increased
same,increment in ^125 I-insulin binding to adipocytes,[8]; above age-matched untreated diabetic controls,1.5-3.0 fold
same,incorporation of acetate into hepatic total fatty acid and triglyceride,[9],restored to normal control levels
same,Survived 50 days or more,"[10]; control 0, P < 0.01",7
same,Died,[10]; control 20 died,13
same,urine volume,"[11]; 0.1% in diet, one week administration, prior 5.95 ± 0.20, n=10",2.07 ± 0.23 ml/mouse/day
same,diet intake,"[11]; 0.1% in diet, one week administration, prior 6.35 ± 0.13, n=10",6.37 ± 0.28 g/mouse/day
same,drinking water,"[11]; 0.1% in diet, one week administration, prior 14.7 ± 0.3, n=10",10.4 ± 0.3 ml/mouse/day
same,urine glucose concentration,"[11]; 0.1% in diet, one week administration, prior 97.4 ± 3.4, n=10",52.9 ± 5.52 mg/mL
same,urine glucose,"[11]; 0.1% in diet, one week administration, prior 579.5 ± 21.1, n=10",106.8 ± 19.5 mg/mouse/day
same,"drinking water, change",[11]; [12],-29.3%
same,"urine glucose concentration, change",[11]; [12],-45.7%
same,"urine glucose, change",[11]; [12],-81.5%
same,"urine volume, change",[11]; [12],-65.2%
